From PubChem BioAssay (NCI)
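Values below derive from 48-hour exposures of cells grown in 96-well plates, with endpoints linearly interpolated between the two concentrations bracketing the appropriate inhibition level. GI50: concentration for 50% inhibition of growth. TGI marks complete inhibition of growth.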

What was measured:
Test in all cases: growth of human tumour cells (NCI), 48 h
[1] = tested on: SF-295 CNS
[2] = tested on: HL-60(TB) leukemia
[3] = tested on: OVCAR-5 ovarian
[4] = tested on: SNB-75 CNS
[5] = tested on: DU-145 prostate
[6] = tested on: RPMI-8226 leukemia
[7] = tested on: UO-31 renal
[8] = tested on: HOP-92 NSCLC

Question: How did the GI50 [1] turn out when `OC(c1cc2cc(Cl)ccc2c2cc(C(F)(F)F)ccc12)C1CCCCN1` (stereo unspecified) was run?
Answer: 1960 nM

Question: What about the TGI [1] of the same compound?
Answer: 3.69 µM

Question: What about the GI50 [2] of the same compound?
Answer: 1920 nM

Question: And the TGI [2]?
Answer: 3.72 µM

Question: And the GI50 [3]?
Answer: 1480 nM

Question: And the TGI [3]?
Answer: 2940 nM

Question: What about the GI50 [4] of the same compound?
Answer: 1690 nM

Question: What about the TGI [4] of the same compound?
Answer: 3.14 µM

Question: And the GI50 [5]?
Answer: 1900 nM

Question: What about the TGI [5] of the same compound?
Answer: 3.37 µM

Question: And the GI50 [6]?
Answer: 2210 nM

Question: And the TGI [6]?
Answer: 4.92 µM

Question: And the GI50 [7]?
Answer: 1590 nM

Question: What about the TGI [7] of the same compound?
Answer: 3.06 µM

Question: What about the GI50 [8] of the same compound?
Answer: 1420 nM

Question: What about the TGI [8] of the same compound?
Answer: 2970 nM
